According to the supplement of paper PMC11061612:

Columns and labels:
[1] = compound: CC1(C)CCC(CN2CCN(c3ccc(C(=O)NS(=O)(=O)c4ccc(NCC5CCOCC5)c([N+](=O)[O-])c4)c(Oc4cnc5[nH]ccc5c4)c3)CC2)=C(c2ccc(Cl)cc2)C1 [Venetoclax]; settings: max 1 µM
In short: (§1)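 Viability was measured with CellTiter-Glo 2.0 luminescence after 72 hours of dosing at a final DMSO of typically 0.2%, and scaled between blank-well and DMSO-well means. Beforehand, cancer cell lines sat 24 hours at 37°C and 5% CO2 in 1536-well plates in 7.5 μl DMEM/F12 or RPMI with 10% FBS. A non-linear mixed effects model fitted two-parameter logistic curves to the dose responses. The single-agent IC50 comes from these fits.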

[2] = compound: Cc1cc2ncnn2cc1Nc1ncc2c(n1)n(C1CCOCC1)c(=O)n2C [AZD7648]; settings: max 10 µM
In short: as §1

[3] = compound: CCc1c2c(nc3ccc(O)cc13)-c1cc3c(c(=O)n1C2)COC(=O)[C@]3(O)CC [SN-38]; settings: max 0.3 µM
In short: as §1

[4] = compound: CC(C)n1c(=O)n(C)c2cnc3cc(F)c(-c4ccc(OCCCN5CCCCC5)nc4)cc3c21 [AZD1390]; settings: max 0.3 µM
In short: as §1

[5] = compound: CC1=CN2[C@@H](C1)C=NC3=CC(=C(C=C3C2=O)OC)OCCCCCOC4=C(C=C5C(=C4)N=C[C@@H]6CC(=CN6C5=O)C)OC [SG3199]; settings: max 0.001 µM
In short: as §1

[6] = compound: COc1cc(Nc2ncc3c(n2)-c2ccc(Cl)cc2C(c2c(F)cccc2OC)=NC3)ccc1C(=O)O [Alisertib]; settings: max 10 µM
In short: as §1

[7] = compound: C=CCn1c(=O)c2cnc(Nc3ccc(N4CCN(C)CC4)cc3)nc2n1-c1cccc(C(C)(C)O)n1 [AZD1775]; settings: max 3 µM
In short: as §1

[8] = compound: C1CN(CCC1(C(=O)N[C@@H](CCO)C2=CC=C(C=C2)Cl)N)C3=NC=NC4=C3C=CN4 [Capivasertib]; settings: max 10 µM
In short: as §1

[9] = compound: CCN(CCO)CCCOc1ccc2c(Nc3cc(CC(=O)Nc4cccc(F)c4)[nH]n3)ncnc2c1 [AZD2811]; settings: max 1 µM
In short: as §1

[10] = compound: CC1=C(C(=CC=C1)Cl)NC(=O)C2=CN=C(S2)NC3=CC(=NC(=N3)C)N4CCN(CC4)CCO [Dasatinib]; settings: max 2 µM
In short: as §1

[11] = compound: C[C@@H]1COCCN1C2=NC(=NC(=C2)C3(CC3)[S@](=N)(=O)C)C4=C5C=CNC5=NC=C4 [AZD6738]; settings: max 10 µM
In short: as §1

[12] = compound: COc1cccc(OCCCN)c1-c1cc(Nc2cnc(C#N)cn2)n[nH]1 [Prexasertib]; settings: max 1 µM
In short: as §1

[13] = compound: Cc1c2c(nn1C)CSCc1cc(n(C)n1)CSc1cc(c3ccccc3c1)OCCCc1c(C(=O)O)n(C)c3c-2c(Cl)ccc13 [AZD5991]; settings: max 1 µM
In short: as §1

[14] = compound: COc1nnc2ccc(N3CCC(c4ccc(OCCN5CCN(C)C(=O)[C@H]5C)cc4)CC3)nn12 [AZD5153]; settings: max 1 µM
In short: as §1

[15] = compound: O=C(c1cc(Cc2n[nH]c(=O)c3ccccc23)ccc1F)N1CCN(C(=O)C2CC2)CC1 [Olaparib]; settings: max 10 µM
In short: as §1

[16] = compound: Cn1cnc2c(F)c(Nc3ccc(Br)cc3Cl)c(C(=O)NOCCO)cc21 [Selumetinib]; settings: max 10 µM
In short: as §1

[17] = compound: C[C@@H](Oc1cc(-c2cnn(C3CCNCC3)c2)cnc1N)c1c(Cl)ccc(F)c1Cl [Crizotinib]; settings: max 10 µM
In short: as §1

[18] = compound: COc1cccc2c1C(=O)c1c(O)c3c(c(O)c1C2=O)C[C@@](O)(C(=O)CO)C[C@@H]3O[C@H]1C[C@H](N)[C@H](O)[C@H](C)O1 [Doxorubicin]; settings: max 1 µM
In short: as §1

[19] = compound: CN(C)CCCOc1ccc(-c2ccc3ncc4c(c3c2)n(C2CCOCC2)c(=O)n4C)cn1 [AZD0156]; settings: max 3 µM
In short: as §1

[20] = compound: Cc1nc(-c2cn3c(n2)-c2ccc(-c4cnn(C(C)(C)C(N)=O)c4)cc2OCC3)n(C(C)C)n1 [Taselisib]; settings: max 10 µM
In short: as §1

[21] = compound: C[C@@H](c1ccc2nccn2c1)n1nnc2ncc(-c3cnn(C)c3)nc21 [Savolitinib]; settings: max 1 µM
In short: as §1

[22] = compound: CN(CC[C@H](CSC1=CC=CC=C1)NC2=C(C=C(C=C2)S(=O)(=O)NC(=O)C3=CC=C(C=C3)N4CCC(CC4)[C@H](C5=CC=CC=C5C6=CC=C(C=C6)Cl)O)S(=O)(=O)C(F)(F)F)CCO [AZD4320]; settings: max 1 µM
In short: as §1

[23] = compound: CC(=O)c1c(C)c2cnc(Nc3ccc(N4CCNCC4)cn3)nc2n(C2CCCC2)c1=O [Palbociclib]; settings: max 10 µM
In short: as §1

[24] = compound: CC(=O)Nc1cccc(-n2c(=O)n(C3CC3)c(=O)c3c(Nc4ccc(I)cc4F)n(C)c(=O)c(C)c32)c1 [Trametinib]; settings: max 1 µM
In short: as §1

[25] = compound: C[C@@H](Nc1cc(F)cc(F)c1)c1cc(C(=O)N(C)C)cc2c(=O)cc(N3CCOCC3)oc12 [AZD8186]; settings: max 3 µM
In short: as §1

[26] = compound: COc1cc2ncnc(Nc3ccc(F)c(Cl)c3)c2cc1OCCCN1CCOCC1 [Gefitinib]; settings: max 10 µM
In short: as §1

[27] = compound: CS(=O)(=O)CCNCc1ccc(-c2ccc3ncnc(Nc4ccc(OCc5cccc(F)c5)c(Cl)c4)c3c2)o1 [Lapatinib]; settings: max 10 µM
In short: as §1

[28] = compound: NC1(c2ccc(-c3nc4ccn5c(=O)[nH]nc5c4cc3-c3ccccc3)cc2)CCC1 [MK-2206]; settings: max 10 µM
In short: as §1

| Cell Line | IC50, cell viability 72 h [1] [µM] | IC50, cell viability 72 h [2] [µM] | IC50, cell viability 72 h [3] [µM] | IC50, cell viability 72 h [4] [µM] | IC50, cell viability 72 h [5] [µM] | IC50, cell viability 72 h [6] [µM] | IC50, cell viability 72 h [7] [µM] | IC50, cell viability 72 h [8] [µM] | IC50, cell viability 72 h [9] [µM] | IC50, cell viability 72 h [10] [µM] | IC50, cell viability 72 h [11] [µM] | IC50, cell viability 72 h [12] [µM] | IC50, cell viability 72 h [13] [µM] | IC50, cell viability 72 h [14] [µM] | IC50, cell viability 72 h [15] [µM] | IC50, cell viability 72 h [16] [µM] | IC50, cell viability 72 h [17] [µM] | IC50, cell viability 72 h [18] [µM] | IC50, cell viability 72 h [19] [µM] | IC50, cell viability 72 h [20] [µM] | IC50, cell viability 72 h [21] [µM] | IC50, cell viability 72 h [22] [µM] | IC50, cell viability 72 h [23] [µM] | IC50, cell viability 72 h [24] [µM] | IC50, cell viability 72 h [25] [µM] | IC50, cell viability 72 h [26] [µM] | IC50, cell viability 72 h [27] [µM] | IC50, cell viability 72 h [28] [µM] |
| --- | --- | --- | --- | --- | --- | --- | --- | --- | --- | --- | --- | --- | --- | --- | --- | --- | --- | --- | --- | --- | --- | --- | --- | --- | --- | --- | --- | --- |
| MDA-MB-361 (Breast Carcinoma) | > 1 | > 10 | 0.275 | > 0.3 | > 0.001 | > 10 | 0.515 | 9.81 | > 1 | > 2 | 2.18 | 0.00652 | 0.579 | > 1 | > 10 | > 10 | > 10 | > 1 | > 3 | 0.103 | > 1 | > 1 | > 10 | > 1 | > 3 | > 10 | > 10 |  |
| MFE-296 (Endometrial Carcinoma) | > 1 | > 10 | 0.158 | > 0.3 | > 0.001 | > 10 | > 3 | > 10 | > 1 | > 2 | > 10 | 0.385 | > 1 | > 1 | > 10 | > 10 | > 10 | > 1 | > 3 | > 10 | > 1 | > 1 | > 10 | > 1 | > 3 | > 10 | > 10 | > 10 |
| NOS-1 (Osteosarcoma) | > 1 | > 10 | > 0.3 | > 0.3 | > 0.001 | > 10 | 0.757 | > 10 | > 1 | 0.192 | 7.74 | > 1 | 0.361 | 0.119 | > 10 | > 10 | 7.98 | > 1 | > 3 | 1.44 | > 1 | > 1 | > 10 | > 1 | > 3 | > 10 | > 10 |  |
| OVCA420 (Ovarian Carcinoma) | > 1 | > 10 | > 0.3 | > 0.3 | > 0.001 | > 10 | > 3 | > 10 | > 1 | 0.265 | > 10 | 0.178 | > 1 | 0.126 | > 10 | 7.91 | > 10 | > 1 | > 3 | 0.989 | > 1 | > 1 | > 10 | 0.156 | > 3 | 4.45 | 1.33 | > 10 |
| SK-ES-1 (Ewing's Sarcoma) | > 1 | > 10 | 0.0016 | > 0.3 | > 0.001 | 0.0941 | 0.618 | > 10 | 0.0179 | > 2 | 2.89 | 0.028 | 0.236 | 0.296 | 2.61 | > 10 | 1.41 | 0.0533 | > 3 | 0.676 | > 1 | 0.15 | 2.39 | > 1 | > 3 | > 10 | > 10 |  |
| SNU-5 (Gastric Carcinoma) | > 1 | > 10 | 0.00692 | > 0.3 | > 0.001 | > 10 | 1.85 | > 10 | > 1 | > 2 | 1.31 | 0.0181 | > 1 | > 1 | > 10 | 2.57 | 0.0869 | > 1 | > 3 | > 10 | 0.00744 | > 1 | > 10 | 0.0811 | > 3 | > 10 | > 10 | > 10 |
| TCCSUP (Bladder Carcinoma) | > 1 | > 10 | 0.201 | > 0.3 | > 0.001 | > 10 | 2.31 | > 10 | > 1 | > 2 | 8.38 | 0.165 | > 1 | > 1 | > 10 | > 10 | > 10 | > 1 | > 3 | > 10 | > 1 | > 1 | > 10 | > 1 | > 3 | > 10 | > 10 |  |
